Laboratory results taken from patent US9060541B2, “Sterilizer for foods” (Kawakami Co., Ltd., priority 2009, dated 2015).
Like-named read-outs stand apart in the source and are kept apart here.

Key:
Type in all cases: cell-based
Design in all cases: key: D: There is no sterilization effect.; C: There is a sterilization effect in step (1) but no sterilization effect in step (2).; B: There is a sterilization effect up to step (2) but no sterilization effect in step (3).; A: There is a sterilization effect up to step (3)
[1] = test system: Vibrio parahaemolyticus AQ3815; experiment: Comparison test of sterilization effects against various food poisoning microbes
[2] = test system: Vibrio cholerae O139 MO45
[3] = test system: Staphylococcus aureus 080392-1 Toxin type A; experiment: Comparison test of sterilization effects against various food poisoning microbes
[4] = test system: Salmonella serotype Stanley KX-S141; experiment: as above
[5] = test system: Salmonella serotype Anatum KX-S152; experiment: as above
[6] = test system: Salmonella serotype Krefeld KX-S124; experiment: as above
[7] = test system: Shigella flexneri subtype 1b KX-H273; experiment: as above
[8] = test system: Shigella boydii serotype 4 KX-H288; experiment: as above
Shigella sonnei KX-H285 = experiment: as above
[9] = test system: Aeromonas hydrophila KX-A428; experiment: as above
[10] = test system: Enteropathogenic Escherichia coli O55 KX-E59; experiment: as above
[11] = test system: Enteroinvasive Escherichia coli O28ac KX-E63; experiment: as above
Bacillus cereus Kyoto 1 = experiment: as above
[12] = test system: Clostridium perfringens NCTC8237
[13] = test system: Campylobacter coli JCM 2529; experiment: Comparison test of sterilization effects against various food poisoning microbes
[14] = Table 7, test microbe solution without yeast extract
[15] = Table 8, yeast extract 4 weight % blended in test microbe solution

CCO [EtOH 30%, ethanol]
Sterilization effect [1, 14]: B | Sterilization effect [1, 15]: C | Sterilization effect [2, 14]: B | Sterilization effect [2, 15]: C | Sterilization effect [3, 14]: B | Sterilization effect [3, 15]: D | Sterilization effect [4, 14]: C | Sterilization effect [4, 15]: C | Sterilization effect [5, 14]: C | Sterilization effect [5, 15]: C | Sterilization effect [6, 14]: C | Sterilization effect [6, 15]: C | Sterilization effect [7, 14]: C | Sterilization effect [7, 15]: D | Sterilization effect [8, 14]: D | Sterilization effect [8, 15]: D | Sterilization effect (Shigella sonnei KX-H285; [14]): C | Sterilization effect (Shigella sonnei KX-H285; [15]): C | Sterilization effect [9, 14]: B | Sterilization effect [9, 15]: C | Sterilization effect [10, 14]: D | Sterilization effect [10, 15]: D | Sterilization effect [11, 14]: C | Sterilization effect [11, 15]: C | Sterilization effect (Bacillus cereus Kyoto 1; [14]): C | Sterilization effect (Bacillus cereus Kyoto 1; [15]): D | Sterilization effect [12, 14]: D | Sterilization effect [12, 15]: D | Sterilization effect [13, 14]: B | Sterilization effect [13, 15]: B

[Na+].[O-]Cl [S.H 150 ppm, sodium hypochlorite]
Sterilization effect [1, 14]: A | Sterilization effect [1, 15]: C | Sterilization effect [2, 14]: A | Sterilization effect [2, 15]: D | Sterilization effect [3, 14]: A | Sterilization effect [3, 15]: D | Sterilization effect [4, 14]: A | Sterilization effect [4, 15]: D | Sterilization effect [5, 14]: A | Sterilization effect [5, 15]: D | Sterilization effect [6, 14]: A | Sterilization effect [6, 15]: D | Sterilization effect [7, 14]: A | Sterilization effect [7, 15]: D | Sterilization effect [8, 14]: A | Sterilization effect [8, 15]: D | Sterilization effect (Shigella sonnei KX-H285; [14]): A | Sterilization effect (Shigella sonnei KX-H285; [15]): D | Sterilization effect [9, 14]: A | Sterilization effect [9, 15]: D | Sterilization effect [10, 14]: A | Sterilization effect [10, 15]: D | Sterilization effect [11, 14]: A | Sterilization effect [11, 15]: D | Sterilization effect (Bacillus cereus Kyoto 1; [14]): A | Sterilization effect (Bacillus cereus Kyoto 1; [15]): D | Sterilization effect [12, 14]: A | Sterilization effect [12, 15]: D | Sterilization effect [13, 14]: A | Sterilization effect [13, 15]: C
